Experimental data as given in US10316061B2, “Synthesis of cell penetrating peptides for drug delivery and stem cell applications” (Temple University-Of The Commonwealth System of Higher …, priority 2014, dated 2019).

Key:
[1] = tested on: HEK293 cells; experiment: Live-cell / confocal uptake of ROX-labeled PepA derivatives in HEK293; format: cell-based; conditions: HEK293 cultures; ROX dye label
Text: FIG. 9 is a series of images depicting live-cell uptake of bioactive peptide A (PepA) labeled with the ROX Dye. Bioconjugation with palmitic acid (C16 tail) and/or CPP AAAAEK (PepX) attachments increased cellular uptake in HEK293 cultures.
FIG. 11 is a series of images depicting laser-scanning confocal microscope imaging of bioactive peptide A (PepA) labeled with the ROX dye. Bioconjugation with palmitic acid (C16 tail) and/or CPP AAAAEK (PepX) attachments increased cellular uptake in HEK293 cultures.
Bioactive (model) peptide A (PepA) and CPP X (PepX) were synthesized via solid phase peptide synthesis (SPPS) methods (Suh et al., 2001 Comprehen. Biomat 4: 219-245; Suh et al., 2013 Polymer Adhesion, Friction and Lubrication 283-317 (Wiley)). Fmoc-deprotection was performed with organic bases such as 4-methyl piperidine and DBU in DMF at room temperature. Coupling reaction was performed in the presence of Fmoc-protected amino acids with the mixture of coupling reagents and organic bases (e.g., HBTU, HOBt and DIEA). The cleaved peptide from the resin was purified by HPLC, collected, and stored for future uses. HEK293 and ReNcell VM cell lines were maintained and utilized for cellular experiments. Live-Cell imaging analysis was performed on an Olympus IX81 and IX83-DSU wide-field spinning disc confocal microscope equipped with an LCI Chamlide stage-top incubator unit. […]

[2] = tested on: ReNcell VM; experiment: RT-qPCR analysis of neural marker gene expression in differentiated ReNcell VM; format: cell-based, human
Method: Differentiated stem cells were cultured for 10 weeks.
The statistical significance was evaluated compared to the control (differentiated ReNcell VM without chemicals) *P<0.05, **P<0.01. GAPDH served as control.
Total mRNA was extracted using mRNA isolation kit (Ambion, Life Technologies) according to the manufacturer's protocol. For higher yield, neural stem cells from eight wells in the same culture plate were homogenized in cell lysis buffer.
Concentrations of mRNA samples were evaluated based on OD260/OD280. mRNA samples were reverse transcribed using reverse transcription kit (Applied Biosystems). PCR amplification of cDNA was carried out using universal PCR master mix (Applied Biosystems) and gene-specific primer sets (Applied Biosystems). These primers included neural stem cell (Nestin, SOX2), immature neuron (Tubb3), mature neuron (MAP2), and astrocyte (GFAP) specific genes. GAPDH was used as a control (house keeping gene). The cycles for RT-PCR consisted of 1 second denaturation at 95° C., 20 second annealing at 60° C. RT-PCR products were analyzed using Mastercycler ep realplex 4 (Eppendorf).

[3] = tested on: ReNcell VM cells; experiment: Immunocytochemistry of Tubb3 / MAP2 protein expression in 4-week differentiated ReNcell VM; format: cell-based, human
Method: FIG. 15. Tubb3 Expression Analysis for 4-Week Differentiated ReNcell VM Cells. ReNcell VM cells were treated with neural stem cell culture medium (control), RA (retinoic acid), RA-PepB, C16-PepB, LiCl, and IFNγ (interferon gamma). Tubb3 proteins expressed in the cells were stained as green and cell nuclei were stained with blue (DAPI).
FIG. 16. MAP2 Expression Analysis for 4-Week Differentiated ReNcell VM Cells. ReNcell VM treated with cell culture media (control), RA, RA-PepB, C16-PepB, LiCl, and IFNγ (interferon gamma). MAP2 proteins expressed in the cells were stained as green and cell nuclei were stained with blue (DAPI) FIG. 17. Quantitation of Immunocytochemistry Results for Tubb3/MAP2 Proteins. Relative numbers of the cells expressing Tubb3 and MAP2 proteins were counted and normalized to the control group (*P<0.05, **P<0.01).
The proteins expressed in ReNcell VM cells were visualized with antibodies to study the protein expression by the differentiation of the stem cells in the presence of various soluble factors including RA-PepB and C16-PepB. […] As is shown in FIGS. 15 and 16, Tubb3 or MAP2 expression levels in 4-week differentiated ReNcell VM cells were evaluated via immunocytochemistry (ICC). Protein expression, after antibody staining, was visualized and quantitatively compared by counting Tubb3 or MAP2-positive cells. […]

Molecule: AAAAEK(A) [PepB]
- live-cell uptake (FIG. 9) [1]: increased cellular uptake of multiple peptides in a synergistic manner
- neuronal differentiation by qRT-PCR (FIGS. 12 and 13) ([2]; 1 to 4 weeks of differentiation, GAPDH control): increased neuronal differentiations

Molecule: CC1=C(/C=C/C(C)=C/C=C/C(C)=C/C(=O)O)C(C)(C)CCC1 [RA, Retinoic acid]
- cytotoxicity in differentiation culture (FIG. 6) ([2]; differentiated stem cells cultured for 10 weeks): Highly cytotoxic; low cell count among results

Molecule: [Cl-].[Li+] [LiCl, lithium chloride]
- Tubb3 expression compared to the control (ICC, positive cell count) [3]: statistically significant increases
